From patent EP1586565A1, “Substituted polycyclic aryl and heteroaryl pyrazinones useful for selective inhibition of the coagulation cascade” (Pharmacia Corporation, priority 1999, dated 2000)

Columns and labels:
Human factor Xa = target: T1, Human factor Xa (Homo sapiens, UniProt P00742); assay: Xa Assay; assay type: biochemical; details: % inhibition at 30 µM (cells with % or %@30, bare 0)
T1 construct: leads from XII to XIIa to XIa to IXa and to the conversion of X to Xa; purchased Enzyme Research Laboratories, South Bend IN
T1 sequence (P00742 235-488 limits assumed): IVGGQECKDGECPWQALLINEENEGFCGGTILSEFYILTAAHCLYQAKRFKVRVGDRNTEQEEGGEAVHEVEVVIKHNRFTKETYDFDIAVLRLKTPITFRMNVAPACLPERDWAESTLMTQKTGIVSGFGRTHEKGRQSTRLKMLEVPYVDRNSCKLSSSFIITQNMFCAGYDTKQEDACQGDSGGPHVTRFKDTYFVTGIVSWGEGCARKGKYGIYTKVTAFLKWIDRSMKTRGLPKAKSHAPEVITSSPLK
T1 sequence (P00742 41-179 limits assumed): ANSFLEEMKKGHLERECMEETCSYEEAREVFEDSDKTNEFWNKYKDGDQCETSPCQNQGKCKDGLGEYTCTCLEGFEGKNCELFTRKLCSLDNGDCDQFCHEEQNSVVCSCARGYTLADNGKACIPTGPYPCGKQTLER

TF-VIIa = target: T2, TF-VIIa (Homo sapiens, UniProt P08709); assay: TF-VIIa Assay; assay type: biochemical; details: for IC50 or % Inhibition TF-VIIa (30 µM): % inhibition at 30 µM (cells with % or %@30, bare 0); for IC50: cells printed as bare numbers (IC50), read-out: IC50 or % Inhibition TF-VIIa (30 µM)
T2 construct: An extrinsic pathway is initiated by the conversion of coagulation factor VII to VIIa by Xa; purchased American Diagnostica, Greenwich CT; Soluble TF was made in house in E. coli
T2 sequence (P08709 213-466 limits assumed): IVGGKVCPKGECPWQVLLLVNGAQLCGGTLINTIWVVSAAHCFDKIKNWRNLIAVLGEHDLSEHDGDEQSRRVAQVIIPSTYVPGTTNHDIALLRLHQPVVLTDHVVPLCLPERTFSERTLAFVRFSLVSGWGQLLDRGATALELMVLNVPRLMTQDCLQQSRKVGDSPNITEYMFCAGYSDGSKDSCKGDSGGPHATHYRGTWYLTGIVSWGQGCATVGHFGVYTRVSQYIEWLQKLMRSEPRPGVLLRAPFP
T2 sequence (P08709 61-212 limits assumed): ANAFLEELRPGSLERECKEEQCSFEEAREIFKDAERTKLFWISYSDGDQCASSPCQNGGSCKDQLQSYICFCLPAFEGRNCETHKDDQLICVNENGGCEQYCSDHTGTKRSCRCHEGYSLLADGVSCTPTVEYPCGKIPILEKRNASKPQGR
T2 sequence (P13726 33-251 partner limits assumed): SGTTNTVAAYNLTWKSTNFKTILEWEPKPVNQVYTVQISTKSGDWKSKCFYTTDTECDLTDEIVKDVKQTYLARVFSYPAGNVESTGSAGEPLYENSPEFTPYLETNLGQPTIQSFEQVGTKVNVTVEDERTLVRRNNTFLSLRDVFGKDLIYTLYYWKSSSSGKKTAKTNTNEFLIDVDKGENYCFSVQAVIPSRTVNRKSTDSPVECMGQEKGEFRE

Trypsin = Trypsin (Sus scrofa, UniProt P00761); assay: Trypsin Assay; details: for IC50 or % Inhibition Trpysin II (30 uM): % inhibition at 30 uM (cells with % or %@30, bare 0); for IC50: read-out: IC50 or % Inhibition Trpysin II (30 uM), cells printed as bare numbers (IC50)
Trypsin, sequence (P00761 9-231): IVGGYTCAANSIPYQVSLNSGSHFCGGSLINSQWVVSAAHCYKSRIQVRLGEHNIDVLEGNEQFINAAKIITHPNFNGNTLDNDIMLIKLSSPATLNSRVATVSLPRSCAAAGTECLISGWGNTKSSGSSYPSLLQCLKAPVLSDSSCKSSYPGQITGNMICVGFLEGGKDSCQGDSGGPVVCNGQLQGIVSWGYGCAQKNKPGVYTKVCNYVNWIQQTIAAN

IC50 or % Inhibition Factor Xa (30 µM) (Human factor Xa) | IC50 or % Inhibition TF-VIIa (30 µM) (TF-VIIa) | IC50 or % Inhibition Trpysin II (30 uM) (Trypsin) | IC50 (TF-VIIa) [µM] | IC50 (Trypsin) [µM] | SMILES
0% | 33% | – | – | – | CCCCNc1nc(Cl)c(-c2ccccc2)n(CC(=O)NCc2ccc(C(=N)N)cc2)c1=O [1517-35]
0% | 25% | 43% | – | – | N=C(N)c1ccc(CNC(=O)Cn2c(-c3ccccc3)c(Cl)nc(NCC3CC3)c2=O)cc1 [1517-43]
– | – | – | > 30 | > 30 | Nc1ccc(CNC(=O)Cn2c(Cc3ccccc3)c(Cl)nc(NCCc3ccccc3)c2=O)cn1 [Example 9]
– | – | – | > 30 | > 30 | Nc1ccc(CNC(=O)Cn2c(CCc3ccccc3)c(Cl)nc(NCCc3ccccc3)c2=O)cn1 [Example 10, 3-(2-Phenylethylamino)-5-chloro-6-phenethyl-1-(2-amino-5-methylcarboxamidomethylpyridinyl)pyrazinone]
0% | 5% | 30% | – | – | N=C(N)NCC#CCNC(=O)Cn1c(-c2ccccc2)cnc(NCCc2ccccc2)c1=O [Example 36]
0% | 1% | 10% | – | – | CC(C)Nc1nc(Cl)c(-c2cccc([N+](=O)[O-])c2)n(CC(=O)NCc2ccc(C(N)=NO)cc2)c1=O [Example 61]
6% | 32% | – | – | – | CC(=O)Nc1cccc(-c2c(Cl)nc(NC(C)C)c(=O)n2CC(=O)NCCc2ccc(C(=N)N)cc2)c1 [Example 68]
5%@30 | 5%@30 | 9%@30 | – | – | Nc1cccc(-c2c(Cl)nc(NC3CCC3)c(=O)n2CC(=O)NCCc2ccccc2)c1 [compound 89]
8%@30 | 6%@30 | 7%@30 | – | – | Nc1cccc(-c2c(Cl)nc(NC3CCC3)c(=O)n2CC(=O)NCc2ccccc2)c1 [compound 99]

More lines, now with the values behind:

SMILES | IC50 or % Inhibition Factor Xa (30 µM) (Human factor Xa) | IC50 or % Inhibition TF-VIIa (30 µM) (TF-VIIa) | IC50 or % Inhibition Trpysin II (30 uM) (Trypsin) | IC50 (TF-VIIa) [µM] | IC50 (Trypsin) [µM]
N=C(N)c1ccc(CNC(=O)Cn2c(-c3ccc(-c4ccccc4)cc3)c(Cl)nc(NCc3ccncc3)c2=O)cc1 [1471-67] | 16% | 12% | – | – | –
N=C(N)c1ccc(CNC(=O)Cn2c(-c3ccc(-c4ccccc4)cc3)c(Cl)nc(NCCc3cccc(Cl)c3)c2=O)cc1 [1471-70] | 12% | 10% | – | – | –
N=C(N)c1ccc(CNC(=O)Cn2c(-c3ccc(-c4ccccc4)cc3)c(Cl)nc(NCCc3ccccc3)c2=O)cc1 [1471-71] | 0% | 6% | – | – | –
N=C(N)c1ccc(CNC(=O)Cn2c(-c3ccc(-c4ccccc4)cc3)c(Cl)nc(NCCc3cccnc3)c2=O)cc1 [1471-72] | 22% | 15% | – | – | –
N=C(N)c1ccc(CNC(=O)Cn2c(-c3ccccc3)c(Cl)nc(NC3Cc4ccccc4C3)c2=O)cc1 [1507-08] | 1% | 7% | – | – | –
N=C(N)c1ccc(CNC(=O)Cn2c(-c3ccccc3)c(Cl)nc(NCc3ccccn3)c2=O)cc1 [1507-24] | 15% | 0% | 25%@30 | – | –
N=C(N)c1ccc(CNC(=O)Cn2c(-c3ccccc3)c(Cl)nc(NCC(F)(F)F)c2=O)cc1 [1507-41] | 17% | 48% | – | – | –
N=C(N)c1ccc(CNC(=O)Cn2c(-c3ccccc3)c(Cl)nc(NCc3cc(F)cc(C(F)(F)F)c3)c2=O)cc1 [1512-29] | 4% | 47% | – | – | –
Cc1cccc(Cl)c1CNc1nc(Cl)c(-c2ccccc2)n(CC(=O)NCc2ccc(C(=N)N)cc2)c1=O [1512-31] | 14% | 43% | – | – | –
N=C(N)c1ccc(CNC(=O)Cn2c(-c3ccccc3)c(Cl)nc(NCc3cccc(OC(F)(F)F)c3)c2=O)cc1 [1512-40] | 3% | 40% | – | – | –
N=C(N)c1ccc(CNC(=O)Cn2c(-c3ccccc3)c(Cl)nc(NCc3c(F)cccc3C(F)(F)F)c2=O)cc1 [1512-44] | 6% | 43% | – | – | –
Cc1cc(Cl)cc(Cl)c1CNc1nc(Cl)c(-c2ccccc2)n(CC(=O)NCc2ccc(C(=N)N)cc2)c1=O [1512-45] | 11% | 27% | – | – | –
N=C(N)c1ccc(CNC(=O)C(Cc2ccccc2)n2c(-c3ccccc3)c(Cl)nc(NC3CCC3)c2=O)cc1 (stereo not drawn) [1517-08] | 0% | 43% | – | – | –
N=C(N)c1ccc(CNC(=O)C(Cc2ccccc2)n2c(-c3ccccc3)c(Cl)nc(NCCc3ccccc3)c2=O)cc1 (stereo not drawn) [1517-14] | 0% | 30% | – | – | –
N=C(N)c1ccc(CNC(=O)C(Cc2ccccc2)n2c(-c3ccccc3)c(Cl)nc(NCCc3cccc(Cl)c3)c2=O)cc1 (stereo not drawn) [1517-20] | 0% | 22% | – | – | –
